According to patent publication US8202555B2, “Natural pharmaceutical preparations for increasing albumin” (priority 2009, dated 2012):

Legend:
[1] = CCl4-induced liver injury (cirrhosis with ascites) in rats: serum proteins, ascites, fibrosis markers; type: in vivo, rat; conditions: 4 weeks
[2] = test system: HR-resistant (Isoniazid and Rifampicin) tubercle bacillus; type: cell-based; conditions: serum of mice dosed 25 mg/kg, 10% serum
H37Rv Tubercle Bacillus = assay: Anti-tubercle bacillus assay in vivo, total lung bacterial count; conditions: infected C57BL/6 mice, 25 mg/kg
Protocol: Anti-tubercle bacillus assay is tested in vivo. C57BL/6 mice infected with H37Rv Tubercle Bacillus are divided into 6 groups (n=15), one is normal control group, another is positive control group (INH: 25 mg/kg), in other groups, preparations was added into mice's feed, animals are administrated consecutive 16 weeks.
Experimental staff Killed 5 mice at the 2nd, 4th, 16th week, obtained lung and spleen, put them into 1 ml 7H9 media, grinded and converted them into 1.5 ml Ep tube, doublely diluted 10 times with 7H9 media, then Plated different dilutions onto 7H11 solid media plates for 4w at 37° C., counted tuberculosis colonys.
Calculation Formula: (initial number of clone×final broth volume×dilution factor 10^3×2×10)+(initial number of clone colony×final broth volume×dilution factor 10^4×2×10)+(initial number of clone colony×final broth volume×dilution factor 10^5×2×10)/3
Take tissue for pathological examination, weight lung, Calculation Formula: (initial number of clone×final broth volume×dilution factor 10^3×2×10)+(initial number of clone colony×final broth volume×dilution factor 10^4×2×10)+(initial number of clone colony×final broth volume×dilution factor 10^5×2×10)/3×initial organ weight/organ weight in treatment.
Count number of Lung bacterial or mouse spleen CFU of every mouse in each group, convert data in accordance with 1 g (CFU).

[3] = test system: R-resistant (Rifampicin) tubercle bacillus; type: cell-based; conditions: serum of mice dosed 25 mg/kg, 10% serum
[4] = test system: HRSE-resistant (Isoniazid, Rifampicin, Streptomycin, Ethambutol-resistant) tubercle bacillus; type: cell-based; conditions: serum of mice dosed 25 mg/kg, 10% serum
[5] = test system: H-resistant (Isoniazid) tubercle bacillus; type: cell-based; conditions: serum of mice dosed 25 mg/kg, 10% serum
[6] = Tuberculous pleural effusions and serum albumin in BCG-sensitized guinea pigs; type: in vivo; conditions: 5 mg/kg, 7 days
Text: After sensitizing with BCG for 42 days, guinea pig was administrated with preparations for 7 days, sensitized for 2 days continuously, then measured the level of Pleural Effusion, number of white blood cell and content of serum albumin

SIV = conditions: general statement, no own test; cited from earlier work
[7] = Serum albumin in rats with intra-abdominal infection; type: in vivo; conditions: 30 mg/kg
Text: The mice are divided into 6 groups (n=10), i.e., Normal control group, Negative control group, Positive control group (Panaxoside), in the remaining 3 groups, rats were fed with preparation 1 through intragastric administration for 6 days. Under anesthesia by diethyl ether, abdominal cavity of mice were cut open, experimental staff stick a puncture on appendices with needle to cause it infected, then sew up abdominal wound. Continue administration after surgery, animals were executed for collecting their blood to measure serum albumin levels, results are listed in Table 7.

[8] = CCl4 rats with ascites, 0.23 mg/kg intragastrically

COc1cc2c(c(OC)c1OC)-c1ccc(OC)c(=O)cc1[C@@H](NC(C)=O)CC2 [Colchicine, colchicine]
ALB [1, 8]: 38.1 ± 5.6 g/L | ALB/GLB [1, 8]: 2.8 ± 1.6 | GLB [1, 8]: 17.1 ± 7.7 g/L | Incidence (ascites) ([1]; CCl4 rats, 0.23 mg/kg): 50% | Animal with ascites n ([1]; CCl4 rats, 0.23 mg/kg, of 10 animals): 5 | HPRO ([1]; CCl4 rats, liver, 0.23 mg/kg): 0.29 ± 0.08 mg/g (Liver Weight)

NNC(=O)c1ccncc1 [INH, Isoniazid]
Inhibition rate of serum, HR-resistance [2]: 67% | Total Lung bacterical count, Mean lg (CFU ± SEM) (H37Rv Tubercle Bacillus; 2 w): 6.12 ± 0.22 lg (CFU) | Total Lung bacterical count, Mean lg (CFU ± SEM) (H37Rv Tubercle Bacillus; 4 w): 5.59 ± 0.20 lg (CFU) | Total Lung bacterical count, Mean lg (CFU ± SEM) (H37Rv Tubercle Bacillus; 16 w): 2.77 ± 0.16 lg (CFU) | Inhibition rate of serum, R-resistance [3]: 72% | Inhibition rate of serum, HRSE-resistance [4]: 21% | Inhibition rate of serum, H-resistance [5]: 0%

C[C@@H]1C[C@H]2[C@@H]3CCC4=CC(=O)C=C[C@]4(C)[C@@]3(F)[C@@H](O)C[C@]2(C)[C@@]1(O)C(=O)CO [Dexamethasone]
ALB [6]: 29.05 ± 3.49 g/L | Exudates volumes [6]: 1.2 ± 0.44 mL | WBC [6]: 19.1 ± 5.24 ×109

Cc1cn([C@H]2C[C@H](N=[N+]=[N-])[C@@H](CO)O2)c(=O)[nH]c1=O [AZT, Zidovudine]
inhibition of infection by SIV (SIV): could not inhibited infection

Panaxoside
ALB [7]: 29.64 ± 2.29 g/L
